Columns and labels:
[1] = Maximum absorption and extinction coefficient of the Te(IV) dihydroxides in water; format: physicochemical; conditions: for extinction coefficient (ε): at λmax
Excerpt: The maximum absorption and extinction coefficient for the compounds in water is listed below: […]

E. Coli [2] = test: Reduction of Te/Te Dye by suspension of E. Coli cells, change in optical density as a function of time (Example 2); format: cell-based; conditions: 1 × 10^-4 M, pH about 7.8
Excerpt: The final concentration of the TPDN was about 1×10^-4 molar after dilution.
The stock solutions of the TPDH can be prepared in a concentration within the range of from about 5×10^-2 and about 5×10^-4 molar.

E. Coli [3] = test: Absorption spectra over time of a system comprising E. Coli and a tellurium (IV) dihydroxide (FIG. 1); format: cell-based; conditions: for absorption maximum: FIG. 1, system comprising E. Coli
Excerpt: FIG. 1 comprises a series of plots showing the change, over time, of the absorption spectrum of a system comprising E. Coli. and a tellurium (IV) dihydroxide. More specifically, the series of plots follows the reduction: [drawing 1] as a function of time.
Over time, as the E. Coli reduces the tellurium (IV) dihydroxide. i.e., the TPDH. the absorption at 510 nm diminishes until it becomes non existent. As the absorption diminishes at 510 nm, a much more intense absorption peak at about 820 nm arises. In other words, the extinction coefficient for the absorption maximum of the TPDH is mu:h less than the extinction coefficient for the absorption maximum for the reduction product. Stated another way, the extinction coefficient for the absorption peak of the reduction product is much greater than the extinction coefficient for the absorption peak of the TPDH.
The time interval between each spectophometric tracing in FIG. 1 is about 30 seconds.

[4] = Stability (half life) at 37° C. at various pH values; format: physicochemical
Excerpt: The stability of the dihydroxycompounds used in this invention is generally very good.

CC(C)(C)C1=CC(=CC=Cc2cc(C(C)(C)C)[s+]c(C(C)(C)C)c2)C=C(C(C)(C)C)[Te]1(O)O [Te/S Dye]
maximum absorption (λmax) [1]: 480 nm
extinction coefficient (ε) [1]: 52,000

CC(C)(C)C1=CC(=CC=Cc2cc(C(C)(C)C)[te+]c(C(C)(C)C)c2)C=C(C(C)(C)C)[Te]1(O)O [Te/Te Dye, 4[3[2,6-bis(1,1-dimethylethyl)-tellurinium-4-yl]-2-propenylidene]-1,1-dihydroxy-2,6-bis(1,1-dimethylethyl)-1,1-dihydro-4H-tellurin chloride]
Optical Density (O.D.) @ 820 nm (E. Coli [2]; 10^5 Cells/mL, 0.0 s): 0.05
Optical Density (O.D.) @ 820 nm (E. Coli [2]; 10^5 Cells/mL, 60 s): 0.15
Optical Density (O.D.) @ 820 nm (E. Coli [2]; 10^5 Cells/mL, 120 s): 0.90
Optical Density (O.D.) @ 820 nm (E. Coli [2]; 10^5 Cells/mL, 180 s): 0.65
Optical Density (O.D.) @ 820 nm (E. Coli [2]; 10^5 Cells/mL, 240 s): 0.89
Optical Density (O.D.) @ 820 nm (E. Coli [2]; 10^5 Cells/mL, 300 s): 0.98
Optical Density (O.D.) @ 820 nm (E. Coli [2]; 10^5 Cells/mL, 360 s): 1.13
Optical Density (O.D.) @ 820 nm (E. Coli [2]; 10^5 Cells/mL, 420 s): 1.18
Optical Density (O.D.) @ 820 nm (E. Coli [2]; 10^5 Cells/mL, 480 s): 1.23
Optical Density (O.D.) @ 820 nm (E. Coli [2]; 10^5 Cells/mL, 540 s): 1.24
Optical Density (O.D.) @ 820 nm (E. Coli [2]; 10^6 Cells/mL, 0.0 s): 0.05
Optical Density (O.D.) @ 820 nm (E. Coli [2]; 10^6 Cells/mL, 30 s): 0.10
Optical Density (O.D.) @ 820 nm (E. Coli [2]; 10^6 Cells/mL, 60 s): 0.32
Optical Density (O.D.) @ 820 nm (E. Coli [2]; 10^6 Cells/mL, 120 s): 0.63
Optical Density (O.D.) @ 820 nm (E. Coli [2]; 10^6 Cells/mL, 150 s): 0.84
Optical Density (O.D.) @ 820 nm (E. Coli [2]; 10^6 Cells/mL, 210 s): 1.15
Optical Density (O.D.) @ 820 nm (E. Coli [2]; 10^6 Cells/mL, 270 s): 1.46
Optical Density (O.D.) @ 820 nm (E. Coli [2]; 10^6 Cells/mL, 300 s): 1.60
Optical Density (O.D.) @ 820 nm (E. Coli [2]; 10^6 Cells/mL, 330 s): 1.73
Optical Density (O.D.) @ 820 nm (E. Coli [2]; 10^6 Cells/mL, 390 s): 2.00
absorption at about 820 nm (E. Coli [3]; FIG. 1, before reduction): practically no absorption
absorption maximum (E. Coli [3]): about 510 nm
absorption at about 510 nm after reduction by E. Coli (E. Coli [3]; over time, tracings about every 30 seconds): non existent
maximum absorption (λmax) [1]: 510 nm
extinction coefficient (ε) [1]: 56,000

CC(C)(C)C1=CC(=CC=Cc2cc(C(C)(C)C)[se+]c(C(C)(C)C)c2)C=C(C(C)(C)C)[Te]1(O)O [Te/Se Dye]
maximum absorption (λmax) [1]: 502 nm
extinction coefficient (ε) [1]: 55,000

CC(C)(C)C1=CC(=CC=Cc2cc(C(C)(C)C)[te+]c(C(C)(C)C)c2)C=C(C(C)(C)C)[Te]1(O)O [drawing 16]
half-life ([4]; pH 4.58): 3.5 h
half-life ([4]; pH 5.98): 4.5 h
half-life ([4]; pH 7.4, pH 7.40): 12 h
half-life ([4]; pH 8.5, pH 8.50): 12 h
half-life ([4]; pH 9.03): 8.5 h
half-life ([4]; pH 10.2, pH 10.20): 8 h
half-life ([4]; pH 11.98): 6.3 h

CC(C)(C)C1=CC(=CC=Cc2cc(C(C)(C)C)[te+]c(C(C)(C)C)c2)C=C(C(C)(C)C)[Te]1 [compound (b), 4-[3-[2,6-bis(1,1-dimethylethyl-4H-tellurin-4-ylidene]-1-propenyl]-2,6-bis(1,1-dimethylethyl) -tellurinium chloride]
absorption maximum (E. Coli [3]): about 820 nm

Source: patent US5082771A, “Detecting cells using tellurapyrylium dihydroxides” (Eastman Kodak Company, priority 1989, dated 1992)
